Entries after “also recorded” stand apart in the source; their conditions may differ. Like-named read-outs stand apart in the source and are kept apart here.
Columns and labels:
[1] = target: T1, LPAR3 (Homo sapiens, UniProt Q9UBY5); conditions: cited from earlier work
T1 sequence (Q9UBY5 1-353): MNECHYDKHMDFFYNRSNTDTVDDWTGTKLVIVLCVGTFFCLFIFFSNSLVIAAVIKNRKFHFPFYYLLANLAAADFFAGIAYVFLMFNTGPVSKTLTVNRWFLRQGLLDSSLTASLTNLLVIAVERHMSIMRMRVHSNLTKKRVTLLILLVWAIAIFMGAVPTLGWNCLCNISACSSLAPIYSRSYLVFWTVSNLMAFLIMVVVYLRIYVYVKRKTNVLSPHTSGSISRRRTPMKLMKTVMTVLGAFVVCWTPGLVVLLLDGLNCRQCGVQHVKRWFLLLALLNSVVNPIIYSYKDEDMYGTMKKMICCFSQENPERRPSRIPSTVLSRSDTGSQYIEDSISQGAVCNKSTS

[2] = target: T2, LPAR5 (Homo sapiens, UniProt Q9H1C0); conditions: cited from earlier work
T2 construct: host or cells: CHO cells
T2 sequence (Q9H1C0 whole entry, species assumed): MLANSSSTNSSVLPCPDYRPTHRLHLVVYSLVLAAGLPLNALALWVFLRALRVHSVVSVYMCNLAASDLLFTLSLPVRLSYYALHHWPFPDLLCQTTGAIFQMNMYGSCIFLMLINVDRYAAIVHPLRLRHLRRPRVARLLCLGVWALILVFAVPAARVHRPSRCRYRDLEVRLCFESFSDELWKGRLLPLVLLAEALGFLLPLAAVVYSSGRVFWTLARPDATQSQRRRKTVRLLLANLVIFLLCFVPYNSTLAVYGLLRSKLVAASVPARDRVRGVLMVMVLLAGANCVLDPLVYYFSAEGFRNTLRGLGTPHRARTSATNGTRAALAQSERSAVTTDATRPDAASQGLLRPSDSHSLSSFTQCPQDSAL

[3] = target: T3, LPAR1 (Homo sapiens, UniProt Q92633); design: expressed in transfected cells; host or cells: CHO cell membranes; conditions: CHO cell membranes; read-out: IC50, inhibition of GTP-gamma-s binding, human LPAR1; cited from earlier work
Target sequence in this assay (Q92633 whole entry): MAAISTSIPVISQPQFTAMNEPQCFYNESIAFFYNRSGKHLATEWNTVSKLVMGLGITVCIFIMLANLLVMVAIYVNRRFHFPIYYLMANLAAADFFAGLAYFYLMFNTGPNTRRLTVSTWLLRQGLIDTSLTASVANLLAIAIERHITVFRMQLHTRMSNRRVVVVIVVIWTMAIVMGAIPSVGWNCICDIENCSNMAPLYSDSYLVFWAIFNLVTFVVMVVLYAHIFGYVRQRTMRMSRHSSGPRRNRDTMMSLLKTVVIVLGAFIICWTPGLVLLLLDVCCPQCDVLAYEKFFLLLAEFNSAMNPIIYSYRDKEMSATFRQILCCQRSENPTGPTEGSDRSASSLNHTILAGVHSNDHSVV

[4] = target: T3, LPAR1; conditions: cited from earlier work
Target sequence in this assay (Q92633 whole entry, species assumed): as the sequence (Q92633 whole entry) above

[5] = test system: GLP-1; assay: Circulating GLP-1 in mice injected with LPA, with or without LPAR antagonist pre-treatment; assay type: in vivo; conditions: for rescue of the fall in blood GLP-1 levels caused by LPA: antagonist 30 mg/kg by gavage 10 min before 50 mg/kg 18:1-LPA i.p., serum at 30 min (Examples 6, 8); for blood GLP-1 with antagonist alone versus vehicles: antagonist 30 mg/kg by gavage, no LPA
Method: We injected mice i.p. with vehicle (10% DMSO in isotonic saline) or 50 mg/kg of 1-oleoyl-2-hydroxy-LPA. Half of the mice injected with LPA were pre-injected with 5 mg/kg Ki-16425 10 minutes prior to receiving LPA. Thirty minutes later, samples of blood were taken by cardiac puncture, and circulating active GLP-1 levels in plasma were analysed by enzyme linked immunosorbent assay.
The experimental protocol was as follows: • 1. Mice were administered an LPAR antagonist drug, either by oral gavage (for BMS986020, SARI 00842, AM966, AM095, or H2L51863030), or by i.p. injection (for Ki-16425, and LPA2-antagonistl) at the doses indicated in the table below. • 2. Control mice were administered only the vehicle (a 10% DMSO solution) given via the same route as the comparison drug was administered. • 3. Ten minutes later, mice were injected i.p. either with isotonic saline, or with 50 mg/kg LPA. • 4. Thirty minutes later, mice were euthanized by cervical dyslocation, and blood was collected from the heart for preparation of serum that was stored at −80C until it was analyzed for total GLP-1 concentration by ELISA assay using a GLP-1 enzyme immunoassay kit.

[6] = target: T4, LPAR4 (Homo sapiens, UniProt Q99677); conditions: cited from earlier work
T4 construct: host or cells: CHO cells
T4 sequence (Q99677 whole entry, species assumed): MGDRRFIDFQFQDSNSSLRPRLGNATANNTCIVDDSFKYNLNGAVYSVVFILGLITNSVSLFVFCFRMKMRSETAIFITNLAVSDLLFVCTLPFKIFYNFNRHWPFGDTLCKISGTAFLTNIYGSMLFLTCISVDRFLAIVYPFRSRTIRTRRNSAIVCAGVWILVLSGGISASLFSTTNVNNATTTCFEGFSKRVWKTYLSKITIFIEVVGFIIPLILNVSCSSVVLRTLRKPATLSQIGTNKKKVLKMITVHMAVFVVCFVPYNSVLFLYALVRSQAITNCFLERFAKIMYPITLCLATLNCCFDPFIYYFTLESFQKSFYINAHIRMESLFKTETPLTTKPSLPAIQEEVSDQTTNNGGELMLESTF

[7] = target: T5, LPAR2 (Homo sapiens, UniProt Q9HBW0); conditions: cited from earlier work
T5 sequence (Q9HBW0 whole entry, species assumed): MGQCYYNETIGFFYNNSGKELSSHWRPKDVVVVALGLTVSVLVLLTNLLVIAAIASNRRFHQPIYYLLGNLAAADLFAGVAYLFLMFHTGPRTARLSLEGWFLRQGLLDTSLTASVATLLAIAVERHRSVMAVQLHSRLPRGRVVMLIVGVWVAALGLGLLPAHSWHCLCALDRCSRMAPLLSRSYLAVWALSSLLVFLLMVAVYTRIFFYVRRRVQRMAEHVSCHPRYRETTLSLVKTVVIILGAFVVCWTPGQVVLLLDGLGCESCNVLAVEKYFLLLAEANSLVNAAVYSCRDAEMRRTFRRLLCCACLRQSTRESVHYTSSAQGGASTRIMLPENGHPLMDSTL

[8] = target: T6, recombinant mouse LPAR1 (Mus musculus, UniProt P61793); conditions: CHO cell membranes; read-out: IC50, inhibition of GTP-gamma-s binding, mouse LPAR1; cited from earlier work
T6 construct: expressed in transfected cells; host or cells: CHO cell membranes
T6 sequence (P61793 whole entry): as the sequence (Q92633 whole entry) above, with I4A, I8S, P22Q, H40Y, I61V, E193D, N194H, I269V, S331N, T335N counted along it

[9] = test system: GLUTag cells; assay: GLP-1 secretion from cultured GLUTag cells treated with LPA and/or LPAR antagonist; assay type: cell-based, mouse; conditions: for effect of LPAR antagonist alone on GLP-1 levels: 10 μM antagonist alone, 2 h; for rescue of LPA-inhibited GLP-1 secretion by LPAR antagonist: 10 μM antagonist plus 2.5 μM LPA
Method: We have grown GLUTag cells in culture to test effects of various LPA species and the LPAR 1/2/3 inhibitor Ki-16425. GLUTag cells are a well characterized L-cell line derived from a mouse intestinal tumour, which have been widely used to study the regulation of GLP-1. Briefly, GLUTag cells were grown until 80-90% confluent. Complete medium, containing fetal bovine serum, was replaced with medium containing charcoal[…] dextran treated serum, which removes lipids and hormones that could interfere with testing. […] This indicates a direct inhibitory effect of LPA at physiologically relevant levels on GLP-1 secretion by L-cells, and the ability of a commercially available LPAR antagonist to prevent this.
Experimental Protocol. Briefly, GLUTag cells were grown until 70-80% confluent. Complete medium (low glucose DMEM), containing fetal bovine serum, was replaced with medium containing charcoal-dextran treated serum, which removes lipids and hormones that could interfere with testing. Cells were then treated with medium containing either DMSO as vehicle control (0.1% v/v), 2.5 μM LPA, 10 μM LPAR antagonist, or a combination of the LPA species and inhibitors. For cells treated with both LPA plus LPAR inhibitor: cells were pre-treated with LPA for 30 minutes and then 10 uM LPAR inhibitor was added to the respective wells for a further 2 hours. For cells treated with LPA only, or vehicle only, the total treatment time was 2.5 hours. For cells treated with antagonist only, the treatment time was 2 hours.

[10] = test system: DPP4; assay: DPP4 activity in GLUTag cells (fluorometric kit ab204722); assay type: cell-based, mouse; conditions: for effect of 18:1-LPA combined with LPAR antagonist on DPP4 activity in GLUTag cells: 2.5 uM 18:1-LPA 30 minutes, then 10 uM antagonist 2 hours; for effect of LPAR antagonist alone on DPP4 activity in GLUTag cells: 10 uM antagonist, 2 hours
Method: Briefly, GLUTag cells were grown to produce the recommended quantity needed for the assay according to the manufacturer's protocol (ab204722 Dipeptidyl peptidase IV Activity Assay Kit (Fluorometric)), and then the wells were treated in media containing charcoal-stripped FBS (10%), with either nothing (no treatment control), or vehicle control (0.05% DMSO), or 2.5 uM 18:1-LPA for 30 minutes, and then the inhibitors (as indicated in the graph of FIG. 17) were added to the vehicle wells and the 2.5 uM 18:1-LPA wells at 10 uM concentrations, as indicated on the graph (FIG. 17), for an additional 2 hours. Cells were then harvested according to the manufacturer's protocol, and lysed using reagents from the kit. Charcoal-stripped FBS was used to remove lipids, including LPA, from serum. Experiments were also carried out wherein the FBS was not stripped with charcoal, and the results were not different.
According to the manufacturer, dipeptidyl peptidase IV (DPP4) Activity Assay Kit (Fluorometric) (ab204722) is an assay where DPP4 cleaves a substrate to release a quenched fluorescent group, AMC (7-Amino-4-Methyl Coumarin), which can be easily detected at Ex/Em=360/460 nm. This assay is rapid, simple, sensitive, and reliable, as well as, suitable for high throughput activity screening of DPP4. This kit detects DPP4 activity as low as 3 ρU per well.

[11] = test system: Dpp4 gene expression; assay: Dpp4 gene expression in LPA-treated GLUTag cells (real time PCR); assay type: cell-based, mouse; conditions: 2.5 uM 20:4-LPA, 2 hours and up to 2 days, normalised to Gapdh
[12] = target: T4, LPAR4; conditions: cited from earlier work; remark: listed apart in the source
[13] = target: T3, LPAR1; design: expressed in transfected cells; host or cells: CHO cells; conditions: cited from earlier work
Target sequence in this assay (Q92633 whole entry): as the sequence (Q92633 whole entry) above

[14] = target: T2, LPAR5; conditions: cited from earlier work; remark: listed apart in the source
[15] = target: T1, LPAR3; conditions: cited from earlier work; remark: listed apart in the source
[16] = target: T5, LPAR2; conditions: cited from earlier work; remark: listed apart in the source
[17] = test system: DPP4; assay: DPP4 activity in serum of C57BI/6J mice; assay type: in vivo

In the case of Cc1noc(-c2ccc(-c3ccc(CC(=O)O)cc3)cc2)c1NC(=O)O[C@H](C)c1ccccc1 [AM095], the “level at which LPAR3 is antagonized” value [1] is given as “low micromolar levels”, the IC50 ([1]; read-out: IC50 for LPAR3) is given as ≥ 10 µM and the IC50 [2] is given as ≥ 10 µM. The IC50 [3] was 0.98 µM, the IC50 ([4]; read-out: IC50 for LPAR1) was ~0.025 µM and the “fold greater affinity for LPAR1 than LPAR2-5” value ([4]; selectivity) was > 400 fold. For the same compound, the “rescue of the fall in blood GLP-1 levels caused by LPA” value [5] was “completely abrogated; also recorded: Complete rescues”, the “blood GLP-1 with antagonist alone versus vehicles” value [5] was “not significantly different from mice treated only with the vehicles” and the IC50 [6] was ≥ 10 µM. For the same compound, the IC50 [7] was ≥ 10 µM, the IC50 [8] was 0.73 µM and the “effect of LPAR antagonist alone on GLP-1 levels” value [9] was “no significant effect”. The “rescue of LPA-inhibited GLP-1 secretion by LPAR antagonist” value [9] was “complete rescue”, the “effect of 18:1-LPA combined with LPAR antagonist on DPP4 activity in GLUTag cells” value [10] was “did not significantly affect” and the “effect of LPAR antagonist alone on DPP4 activity in GLUTag cells” value [10] was “did not significantly affect”.

In the case of CCCCC/C=C\C/C=C\C/C=C\C/C=C\CCCC(=O)OCC(O)COP(=O)(O)O (stereo not shown) [20:4-LPA, 1-arachidonoyl-2-hydroxy-LPA], the “change in Dpp4 gene expression” value [11] is reported as “did not significantly change”, the “fold decrease in GLP-1 secretion / GLP-1 levels in media caused by LPA” value ([9]; 2.5 μM LPA species) is reported as ~5 fold and the “decrease in GLP-1 secretion / level caused by LPA (fraction)” value ([9]; 2.5 μM LPA, 2-2.5 h) is reported as “over 2/3”.

For Cc1noc(-c2ccc(-c3ccc(CC(=O)O)cc3)cc2)c1NC(=O)O[C@H](C)c1ccccc1Cl [AM966], the “level at which LPAR3 is antagonized” value [1] is given as “low micromolar levels”, the IC50 ([12]; calcium assay, CHO cells, read-out: IC50, LPAR4) is given as 7.7 µM and the IC50 ([12]; read-out: IC50, LPAR4, calcium release in CHO cells) is given as 7.7 µM. For the same compound, the IC50 ([13]; LPA-induced calcium response, CHO cells with LPAR1) was 0.017 µM, the “fold lower affinity for LPAR2, LPAR3 (than LPAR1)” value ([13]; selectivity) was ~10 fold and the IC50 ([14]; calcium assay, CHO cells, read-out: IC50, LPAR5) was 8.6 µM. For the same compound, the IC50 ([14]; read-out: IC50, LPAR5, calcium release in CHO cells) was 8.6 µM, the “rescue of the fall in blood GLP-1 levels caused by LPA” value [5] was “completely abrogated; also recorded: Complete rescues; also recorded: restored to normal levels” and the “blood GLP-1 with antagonist alone versus vehicles” value [5] was “indistinguishable from mice treated only with the vehicles”. For the same compound, the IC50 ([15]; calcium assay, CHO cells, read-out: IC50, LPAR3) was 1.6 µM, the IC50 ([15]; read-out: IC50, LPAR3, calcium release in CHO cells) was 1.6 µM and the IC50 ([16]; calcium assay, CHO cells, read-out: IC50, LPAR2) was 1.7 µM. The IC50 ([16]; read-out: IC50, LPAR2, calcium release in CHO cells) was 1.7 µM, the “effect of LPAR antagonist alone on GLP-1 levels” value [9] was “no significant effect” and the “rescue of LPA-inhibited GLP-1 secretion by LPAR antagonist” value [9] was “complete rescue”. For the same compound, the “effect of antagonist on DPP4 activity in mouse serum” value ([17]; 30 mg/kg by gavage) was “did not significantly affect; also recorded: lack of effect; also recorded: not significantly affected”, the “effect of 18:1-LPA combined with antagonist on DPP4 activity in mouse serum” value ([17]; antagonist 30 mg/kg by gavage then 50 mg/kg 18:1-LPA) was “did not affect” and the “effect of 18:1-LPA combined with LPAR antagonist on DPP4 activity in GLUTag cells” value [10] was “did not significantly affect”. The “effect of LPAR antagonist alone on DPP4 activity in GLUTag cells” value [10] was “did not significantly affect”.
